Where a name gives a salt, the structure may show the parent alone.
Tests used:
Type in all cases: physicochemical
[1] = Phase stability by XRPD after storage at 40° C. and 75% relative humidity for one week; settings: solid form by low resolution XRPD after one week
Description: Condition 2 (Low Resolution)
X-Ray Powder Diffraction patterns were also collected on a Bruker D8 diffractometer using Cu K[…] radiation (40 kV, 40 mA), θ-2θ goniometer, and divergence of V4 and receiving slits, a Ge monochromator and a Lynxeye detector. The instrument is performance checked using a certified Corundum standard (NIST 1976). The software used for data collection was Diffrac Plus XRD Commander v2.5.0 and the data were analysed and presented using Diffrac Plus EVA v 11.0.0.2 or v 13.0.0.2. Samples were run under ambient conditions as flat plate specimens using powder as received. Approximately 15 mg of the sample was gently packed into a cavity cut into polished, zerobackground (510) silicon wafer. The sample was rotated in its own plane during analysis. The details of the data collection are:
The samples which had been prepared for the collection of low resolution XRPD traces were placed in a chamber maintained at 40° C. and 75% relative humidity. After one week the samples were reanalysed by low resolution XRPD (Condition 2), to check for phase changes. It can be seen that no phase change has occurred, and that citrate salts of the invention are stable for at least one week under these conditions.

[2] = Thermogravimetric Analysis (TGA)
Description: Thermogravimetric Analysis (TGA) data were collected on a Mettler TGA/SDTA 851e equipped with a 34 position autosampler. The instrument was temperature calibrated using certified indium. Typically 5-30 mg of each sample was loaded onto a pre-weighed aluminium crucible and was heated at 10° C.min^−1 from ambient temperature to 350° C. A nitrogen purge at 50 ml.min^−1 was maintained over the sample. The instrument control and data analysis software was STARe v9.10.

[3] = Differential Scanning Calorimetry (DSC); settings: heated at 10° C.min^−1
Description: Differential Scanning Calorimetry (DSC) data were collected on a Mettler DSC 823e equipped with a 34 position auto-sampler. The instrument was calibrated for energy and temperature using certified indium. Typically 0.5-3 mg of each sample, in a pin-holed aluminium pan, was heated at 10° C.min^−1 from 25° C. to 350° C. A nitrogen purge at 50 ml.min^−1 was maintained over the sample. The instrument control and data analysis software was STARe v9.10.

[4] = Solubility assessment (solvent added in 10 volume aliquots)
Description: For each solvent investigated, approximately 8 mg of compound 1 was weighed into an 8 ml screw top glass vial. The solvent was added in 10 volume aliquots and the mixture sonicated and warmed (with a hot-air gun) to encourage dissolution. If dissolution was not achieved after the addition of 100 volumes of solvent, a further 100 volumes was added.

[5] = Gravimetric Vapour Sorption (GVS)
Description: Sorption isotherms were obtained using a SMS DVS Intrinsic moisture sorption analyser, controlled by SMS Analysis Suite software. The sample temperature was maintained at 25° C. by the instrument controls. The humidity was controlled by mixing streams of dry and wet nitrogen, with a total flow rate of 200 ml.min^−1. The relative humidity was measured by a calibrated Rotronic probe (dynamic range of 1.0-100% RH), located near the sample. The weight change, (mass relaxation) of the sample as a function of % RH was constantly monitored by the microbalance (accuracy ±0.005 mg). Typically 5-20 mg of sample was placed in a tared mesh stainless steel basket under ambient conditions. The sample was loaded and unloaded at 40% RH and 25° C. (typical room conditions). A moisture sorption isotherm was performed as outlined below (2 scans giving 1 complete cycle). The standard isotherm was performed at 25° C. at 10% RH intervals over a 0.5-90% RH range.
The hygroscopicity of the citrate was investigated by carrying out a gravimetric vapour sorption experiment on Batch 4. A sample of approximately 20 mg was held at 25° C. whilst the humidity of its environment was changed through two complete cycles. […] The sample takes longer to reach equilibrium in the early stages of the experiment. This may be due to displacement of residual solvent.

[6] = Polymorphism assessment (XRPD after 25° C./50° C. cycles in solvent)
Description: The vials were then placed in a humidity chamber and subjected to cycles of 25° C./50° C. (8 hour cycles) for 24 hours. At the end of this time the samples were examined and then left with loosened lids to allow for evaporation of the solvent. Those samples which had dried out were then transferred to a quartz array, whilst those for which there was still solvent present, were filtered under vacuum onto a sinter. The samples were then analysed by XRPD to assess their crystalline state and form.

[7] = Solubility assessment (solvent added in 10 volume aliquots); remark: listed apart in the source

Compound: C1=C2COC/C=C/COCc3cc(ccc3OCCN3CCCC3)Nc3nccc(n3)C(=C1)O2 [Batch 6]
- Phase Stability 1 wk @ 40° C./75% RH [1]: Crystalline Form 1
- Thermogravimetric Analysis weight change ([2]; 160 to 250° C.): −20% w/w 160 to 250 °C
- Thermogravimetric Analysis weight change ([2]; ambient to 160° C.): −0.3% w/w ambient to
- Differential Scanning Calorimetry complex endotherm onset (significant thermal event) [3]: onset 176 °C

Compound: C1=C2COC/C=C/COCc3cc(ccc3OCCN3CCCC3)Nc3nccc(n3)C(=C1)O2 [Compound I, 9E-15-(2-pyrrolidin-1-yl-ethoxy)-7,12,25-trioxa-19,21,24-triaza-tetracyclo[18.3.1.1(2,5).1(14,18)]hexacosa-1(24),2,4,9,14,16,18(26),20,22-nonaene]
- total dissolution in solvent screen ([4]; 11 solvents, up to 200 volumes): total dissolution was only achieved in water

Compound: C1=C2COC/C=C/COCc3cc(ccc3OCCN3CCCC3)Nc3nccc(n3)C(=C1)O2 [citrate, 9E-15-(2-pyrrolidin-1-yl-ethoxy)-7,12,25-trioxa-19,21,24-triaza-tetracyclo[18.3.1.1(2,5).1(14,18)]hexacosa-1(24),2,4,9,14,16,18(26),20,22-nonaene citrate]
- hygroscopicity ([5]; GVS, 0% RH to 90% RH): not hygroscopic
- maximum weight difference ([5]; between 0% RH and 90% RH, 25° C.): less than 1 % w/w
- solubility in organic solvents ([4]; organic solvents of the screen): extremely limited
- solid form of recovered solid (XRPD) ([6]; aqueous solution allowed to evaporate): amorphous
- solid form of residues (XRPD) ([6]; organic solvent screening samples): Form 1
- level at which the salt dissolves in water [7]: ≥ 100000 µg/mL
